Consider 14 compounds from US3954814A, “Alkadienylcyclopropanecarboxylates” (Sumitomo Chemical Company, Limited, priority 1971, dated 1976).

≈ marks a conversion by molar mass, not a printed value.

What all share (assay type): in vivo
In one assay the test system is house flies. As to the kind of experiment: Campbell's turn table oil spray test on house fly adults (Experimental Example 1). Particulars: Musca domestica, 24 h, oil spray 5 ml, 10 min exposure, mortality after 1 day, read-out: LC50 (50 percent lethal concentration). The protocol:
The present compounds (1), (4), (8), (10), (14), (15), (20), (22), (32), (36), (38), (41), (44), (48), (50), (51), (52), (53), (61), (66), (68), (72), (73), (78), (80), (81), (90), (93) and (96), and chrysanthemic acid esters and pyrethric acid esters corresponding thereto were individually formulated by use of deodorized kerosene into oil sprays of various test concentrations.
Using the Campbell's turn table [disclosed in "Soap & Sanitary Chemicals," Vol. 14, No. 6, page 119 (1938)], 5 ml. of each of the oil sprays was sprayed. When 20 seconds had elapsed after the spraying, the shutter was opened, and adults of house flies (a group of about 100 flies) were exposed to the settling mist for 10 minutes and then transferred to an observation cage.
The above operation was repeated several times to measure the LC50 (50 percent lethal concentration) of each compound.

Another assay relates to rice stem borer larvae. As to the kind of experiment: micro dropping (topical) test on hibernating rice stem borer larvae (Experimental Example 3). Particulars: topical in acetone, head and tail of larvae, 3 days. The source says:
The present compounds (1), (4), (8), (10), (14), (15), (22), (32), (36), (38), (41), (44), (48), (50), (51), (52), (53), (61), (66), (68), (72), (73), (80), (81), (90) and (93) and chrysanthemic acid esters corresponding thereto were individually dissolved in acetone to prepare insecticides of various concentrations. Using a micro dropping means, each of the insecticides was dropped to the head and tail of hibernating rice stem borer larvae.

In assay [1] the test system is Northern house mosquitoes. Kind of assay: knock-down test of oil sprays on Northern house mosquito adults in (70 cm)^3 glass chamber (Experimental Example 2). Particulars: concentration of oil spray 0.1%. As for the experimental part: The present compounds (1), (6), (20), (22), (23), (25), (27), (29), (30), (31), (39), (42), (43), (45), (49), (53), (56), (62), (64), (78), (81), (83), (85), (87), (88) and (89), and chrysanthemic acid esters and pyrethric acid esters corresponding thereto were individually formulated by use of deodorized kerosene into oil sprays of various test concentrations.
About 20 adults of Northern house mosquitoes were liberated in a (70 cm)^3 glass chamber, and 0.7 ml. of each of the oil sprays was sprayed into the chamber under a pressure of 1.5 kg/cm^2 by use of a glass atomizer. Subsequently, the number of knocked-down mosquitoes was counted to calculate the KT50 (50 percent knock down time) of each compound.

In the case of `C=CCc1cc(C)c(COC(=O)C2C(C=C(C)C)C2(C)C)c(C)c1` (stereo not shown) [2,6-Dimethyl-4-allylbenzyl chrysanthemate, reference compound], the LC50 with house flies stood at 650 µg/mL (≈ 1990 µM). The “LD50 (50 percent lethal dose)” value in the assay on rice stem borer larvae is 0.35 γ/larva.

For the compound `CC(C)=CC1C(C(=O)OCc2cccc(Cc3ccccc3)c2)C1(C)C` (stereo not shown) [3-Benzylbenzyl chrysanthemate, reference compound], in the assay with house flies, the LC50 is 270 µg/mL (≈ 775 µM). The “LD50 (50 percent lethal dose)” value with rice stem borer larvae was 1.20 γ/larva.

Regarding `CC(C)=CC1C(C(=O)OCC=C(Cl)Cc2ccccc2)C1(C)C` (stereo not shown) [3-Chloro-4-phenyl-2-butene-1-yl chrysanthemate, reference compound], the LC50 in the assay with house flies is 360 µg/mL (≈ 1080 µM). The “LD50 (50 percent lethal dose)” value in the assay on rice stem borer larvae was 0.68 γ/larva.

Take `CC(C)=CC1C(C(=O)OCc2cccc(Oc3ccccc3)c2)C1(C)C` (stereo not shown) [3-Phenoxybenzyl chrysanthemate, reference compound]: the LC50 in the assay with house flies turned out to be 170 µg/mL (≈ 485 µM). Also, the “LD50 (50 percent lethal dose)” value in the assay on rice stem borer larvae is on record as 0.72 γ/larva.

In the case of `CC(C)=CC1C(C(=O)OCc2cc3c(o2)CCCC3)C1(C)C` (stereo not shown) [4,5-Tetramethylenefurfuryl chrysanthemate, reference compound], in the assay on house flies, the LC50 came to 160 µg/mL (≈ 529 µM). Also, the “LD50 (50 percent lethal dose)” value in the assay on rice stem borer larvae was 0.75 γ/larva.

For `C#CCc1ccc(COC(=O)C2C(C=C(C)C)C2(C)C)cc1` (stereo not shown) [4-Propargylbenzyl chrysanthemate, reference compound], the LC50 in the assay with house flies worked out at 850 µg/mL (≈ 2870 µM). For the same compound, the “LD50 (50 percent lethal dose)” value in the assay on rice stem borer larvae is on record as 0.99 γ/larva.

As to `CC(C)=CC1C(C(=O)OCc2ccc(Oc3ccccc3)o2)C1(C)C` (stereo not shown) [5-Phenoxyfurfuryl chrysanthemate, reference compound], the LC50 in the assay with house flies turned out to be 85 µg/mL (≈ 250 µM). Besides, in the assay on rice stem borer larvae, the “LD50 (50 percent lethal dose)” value is on record as 0.12 γ/larva.

Regarding `C#CCc1ccc(C(C#C)OC(=O)C2C(C=C(C)C)C2(C)C)o1` (stereo not drawn) [5-Propargyl-α-ethynylfurfuryl chrysanthemate, reference compound], the LC50 in the assay with house flies is 260 µg/mL (≈ 838 µM). The “KT50 (50 percent knock down time)” value in assay [1] is 120 s.

Consider `C=CC(C)=CC1C(C(=O)OCc2cccc(Cc3ccccc3)c2)C1(C)C` (stereo not shown) [Present compound (4), 3-Benzylbenzyl 2',2'-dimethyl-3'-(2"-methyl-1",3"-butadienyl)-cyclopropanecarboxylate], for which the LC50 in the assay with house flies is 110 µg/mL (≈ 305 µM). Further, the “LD50 (50 percent lethal dose)” value in the assay on rice stem borer larvae is recorded as 0.71 γ/larva.

On to `C#CCc1ccc(COC(=O)C2C(C=C(C)C=C)C2(C)C)cc1` (stereo not shown) [Present compound (8), 4-Propargylbenzyl 2',2'-dimethyl-3'-(2"-methyl-1",3"-butadienyl)-cyclopropanecarboxylate], for which, in the assay on house flies, the LC50 was 500 µg/mL (≈ 1620 µM). Besides, the “LD50 (50 percent lethal dose)” value with rice stem borer larvae was 0.37 γ/larva.

Consider `C=CC(C)=CC1C(C(=O)OCc2cc3c(o2)CCCC3)C1(C)C` (stereo not shown) [Present compound (10), 4,5-Tetramethylenefurfuryl 2',2'-dimethyl-3'-(2"-methyl-1",3"-butadienyl)-cyclopropanecarboxylate], for which, in the assay on house flies, the LC50 turned out to be 120 µg/mL (≈ 382 µM). Besides, in the assay with rice stem borer larvae, the “LD50 (50 percent lethal dose)” value is 0.32 γ/larva.

For `C=CC(C)=CC1C(C(=O)OCc2ccc(Oc3ccccc3)o2)C1(C)C` (stereo not shown) [Present compound (14), 5-Phenoxyfurfuryl 2',2'-dimethyl-3'-(2"-methyl-1",3"-butadienyl)-cyclopropanecarboxylate], the LC50 in the assay on house flies worked out at 47 µg/mL (≈ 133 µM). Also, in the assay with rice stem borer larvae, the “LD50 (50 percent lethal dose)” value is on record as 0.040 γ/larva.

Take `C#CCc1ccc(C(C#C)OC(=O)C2C(C=C(C)C=C)C2(C)C)o1` (stereo not shown) [Present compound (20), 5-Propargylα-ethynylfurfuryl 2',2'-dimethyl-3'-(2"-methyl-1",3"-butadienyl)-cyclopropanecarboxylate]: in the assay with house flies, the LC50 came out at 90 µg/mL (≈ 279 µM). The “KT50 (50 percent knock down time)” value in assay [1] was found to be 102 s.

As to `C#CCc1ccc(C(C#C)OC(=O)C2C(C=CC=C)C2(C)C)o1` (stereo not drawn) [Present compound (78), 5-Propargyl-α-ethynylfurfuryl 2',2'-dimethyl-3'-(1",3"-butadienyl)-cyclopropanecarboxylate], the LC50 in the assay on house flies was found to be 82 µg/mL (≈ 266 µM). Further, the “KT50 (50 percent knock down time)” value in assay [1] is 93 s.
